Reference: patent publication US20110269790A1, “NOVEL THIENOPYRIDINES AS PHARMACOLOGICALLY ACTIVE AGENTS” (priority 2009, published 2011)

What was measured:
TNF-α [1] = test: TNF-α in rat paw tissue, FCA model (ELISA); assay type: in vivo; conditions: termination day
Description: Group I—Normal Control; Group II—Arthritic control; Group III—Arthritic rats administered with Synthetic compound BN-4; Group IV—arthritic rats administered with compound BN-14; Group V—arthritic rats administered with BN-16; Group VI—arthritic rats administered with standard drug indomethacin. Administration of test compounds and indomethacin started on the same day of adjuvant injection at the dose of 100 and 2.5 mg/kg respectively. The test and indomethacin doses continued up to 21 days in FCA induced model and 24 days in collagen induced model. During the study period the paw volumes were measured on 5th, 12th, 18th and 21 st days and the weight of the animals was also recorded at different time intervals. At each time point the percentage of inhibition of paw volume was calculated with reference to mean paw volume of control group In FCA model, animals were sacrificed on 21st day by cervical dislocation. Before sacrificing the animals, blood was collected and used for estimation of total leukocyte count, TNF-α and IL-1β.
In FCA induced study paw tissues were collected on termination day and estimated TNF-α and IL-1β levels for all the groups by ELISA method.

TNF-α [2] = test: In vitro TNF-α estimation in LPS treated RAW 264.7 macrophages (ELISA); assay type: cell-based, mouse
Description: (§1) Cell Culture and Treatment: The RAW 264.7 (mouse macrophages, national center for cellular sciences) cells were grown in plastic T-25 culture flask in Dulbeccos modified eagles medium (DMEM) without phenol red supplemented with 10% heat activated serum (heating at 57° C. for 30 minutes, 100 μg per ml penicillin, 200 μg per ml streptomycin, 2 mmol L-glutamine, 1% antibiotic/Anti mycotic solution (GIBCO/SRL) under 5% co2 with 85% relative humidity at 37° C. After 2-3 days cells were removed from the culture flask by tripsinizing the cells with Trypsin EDTA solution. Cell count and viability was performed using a standard Trypan blue dye exclusion method. The cell concentration was adjusted to 1×10^5 cells per ml in each well with the same media in the 12 well plates. After 24 hrs incubation the media was removed from each well replaced with a fresh one containing different concentrations (50 μg, 25 μg, 12.5 μg) of the synthetic compounds BN-4, BN-14 and BN-16 along with 10 μg/ml LPS, where as normal control (PBS) and positive controls (Dexa, Roli) LPS (10 μg/ml), were added. 200 μl of media from each well was collected at 6 hrs for the estimation of TNF-α and after 24 hrs for Nitric Oxide respectively. The adherent cells, which remained after removing the media was subjected to […] for determining the cytotoxicity of compounds at selected concentrations
Measurement of TNF-α: TNF-α was assayed by ELISA kit supplied by R&D systems. A volume of 100 μl of 0.8 μg per ml, goat anti mouse TNF-a in PBS was coated and incubated overnight at room temperature. Plates were washed 3 times with PBS/0.05% Tween 20 and blocked by the addition of 1% BSA in PBS at room temperature for 2 hrs. Plates were washed 3 times again with same buffer and 100 μl of samples and standards (Recombinant mouse TNF-α with 1% BSA in PBS) of different concentrations were added in triplicates and incubated for 2 hrs at RT. After washing 100 μl of goat anti mouse TNF-α conjugated with HRP were added and incubated for 2 hrs at RT. Then 100 μl of TMB substrate ([…] with H2O2) was added to all wells. After 20 min stop solution was added to all the wells, and measured the optical density at 450 nm. TNF-α concentration was calculated from standard curve by regression analysis.

TNF-α [3] = test: TNF-α in paw tissue, collagen induced arthritis; assay type: in vivo, rat; conditions: collagen induced study, day 24, 100 mg/kg/day
From the text: It is believed that these proinflammatory cytokines help to propagate a local or systemic inflammatory process, and to induce biosynthesis and secretion of metalloproteinases (MMPs) and osteoclasts that critically contribute to degradation of extracellular matrix and erosion of bone respectively (Burger et al., 1998; Gravallese and Goldring, 2000; Smolen and Steiner, 2003).

Wistar rats = test: Cotton pellet granuloma (sub acute model); assay type: in vivo, rat; conditions: BN compounds 100 mg/kg, Indomethacin 5 mg/kg, daily for 7 days
Description: Wistar rats weighing between 180-220 gms were anaesthetized with ether. The skin at their back was shaved and disinfected with 70% alcohol according to D'Arcy et al., 1960). An incision was made in the lumbar region. Using a blunt forceps subcutaneous tunnel was formed and a sterilized cotton pellet was placed on both sides in scapular region. Standard 20 mg cotton pellets was weighed and sterilized for the study. Rats were grouped into 5 groups of 6 animals each. […] On 8th day rats in all groups were sacrificed with anesthetic ether. Pellets were removed and kept overnight for incubation at 37° C. Then pellets were dried at 60° C. until they reach constant weight. The wet weight of pellets was also recorded after sacrificing. The average weights of pellets of control group and other treated groups were calculated. The percent change of granuloma weight was calculated for all the test groups comparing with control group.

Nitric oxide = Nitric oxide (nitrite, Griess) estimation in LPS treated RAW 264.7 macrophages; assay type: cell-based, mouse; conditions: 24 hrs, different concentrations, vs LPS treated control
Description: as §1
Measurement of Nitrite: For determination of nitric oxide concentration, the stable conversion product of nitric oxide, nitrite (NO^2−) was measured using the Griess reagent (Chi et, al., 2001). After 24 hrs incubation a volume of 100 μl of supernatant from each well of cell culture plates was transferred to 96 well micro plate and equal volume of Griess reagent (1% sulphanilamide, 0.1% N-(1-naphthyl ethylene diamine hydrochloride), 2.5% H3PO4) was then added to the supernatant at room temperature. The absorbance at 570 nm was determined in multi detection Microplate reader after 10 min. Nitric oxide concentration was calculated using standard curve.

[4] = 50 μg/ml, 25 μg/ml, 12.5 μg/ml with LPS 10 μg/ml, 6 hrs

Row | SMILES | % Inhibition (TNF-α) (TNF-α [1]) [%] | Inhibition of TNF-a production (TNF-α [2]; 12.5 μg/ml with LPS) | Inhibition of TNF-a production (TNF-α [2]; [4]) | Inhibition of TNF-α in paw tissues (TNF-α [3]) | % Inhibition (granuloma dry weight) (Wistar rats) [%] | % Inhibition (granuloma wet weight) (Wistar rats) [%] | Granuloma Dry Weight (Wistar rats) [mg] | Granuloma Wet Weight (Wistar rats) [mg] | Release of NO from murine macrophage cell line (Nitric oxide)
1 | Cc1sc2nc3c(c(N)c2c1C)CCCCC3 [BN-4, 2,3-dimethyl-6,7,8,9-tetrahydro-5H-cyclohepta[b]thieno[3,2-e]pyridin-4-amine] | 42.9 ± 3.78 | not shown inhibition | good inhibition | more significant inhibition (p<0.01) | 28.42 ± 3.09 | 22.23 ± 1.20 | 83.33 ± 3.59 | 366.08 ± 3.50 | significantly (p<0.01) suppressed
2 | Nc1c2c(nc3sc4c(c13)CCC4)CCCC2 [BN-14, 2,3,6,7,8,9-Hexahydro-1H-cyclopenta[4,5]thieno[2,3-b]quinolin-10-amine] | 38.03 ± 9.73 | – | good inhibition | more significant inhibition (p<0.01) | 25.48 ± 1.89 | 20.21 ± 0.58 | 86.75 ± 2.20 | 374.42 ± 4.69 | significantly (p<0.01) suppressed
3 | Nc1c2c(nc3sc4c(c13)CCC4)CCCCC2 [BN-16, 1,2,3,6,7,8,9,10-Octahydrocyclohepta[b]cyclopenta[4,5]thieno[3,2-e]pyridine-11-amine] | 37.42 ± 5.57 | – | good inhibition | moderate inhibition (p<0.05) | 27.70 ± 1.82 | 23.09 ± 1.59 | 84.16 ± 2.11 | 365.08 ± 6.39 | significantly (p<0.01) suppressed
4 | COc1ccc2c(c1)c(CC(=O)O)c(C)n2C(=O)c1ccc(Cl)cc1 [Indomethacin, reference compound] | 29.06 ± 0.06 | – | – | moderate inhibition (p<0.05) | 32.78 ± 1.88 | 26.93 ± 2.24 | 78.25 ± 2.19 | 338.01 ± 10.38 | –
